Test results taken from ChEMBL document CHEMBL1201862, “PubChem BioAssay data set” (2004).
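In this assay, cells in 96-well plates receive the compound at five concentrations for 48 hours. Endpoints are linearly interpolated between the surrounding concentrations. The concentration for 50% growth inhibition is given as GI50.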 Active and inactive are the calls of the source. Rule as the data show it: active = GI50 up to about 1.1 µM and inactive = higher.

How the values were obtained:
Experiment in all cases: NCI-60 cell line screen, 48 h
SN12C = tested on: SN12C
RXF 393 = tested on: RXF 393
EKVX = tested on: EKVX
NCI-H226 = tested on: NCI-H226
MOLT-4 = tested on: MOLT-4
TK-10 = tested on: TK-10
HCC 2998 = tested on: HCC 2998
U-251 = tested on: U-251
SF-268 = tested on: SF-268
SW-620 = tested on: SW-620
SF-539 = tested on: SF-539
HOP-92 = tested on: HOP-92
NCI-H460 = tested on: NCI-H460
SF-295 = tested on: SF-295
MDA-N = tested on: MDA-N
DU-145 = tested on: DU-145
SNB-75 = tested on: SNB-75
HCT-15 = tested on: HCT-15
HOP-62 = tested on: HOP-62
KM12 = tested on: KM12

| Structure (SMILES) | GI50 (SN12C) | GI50 (RXF 393) | GI50 (EKVX) | GI50 (NCI-H226) | GI50 (MOLT-4) | GI50 (TK-10) | GI50 (HCC 2998) | GI50 (U-251) | GI50 (SF-268) | GI50 (SW-620) | GI50 (SF-539) | GI50 (HOP-92) | GI50 (NCI-H460) | GI50 (SF-295) | GI50 (MDA-N) | GI50 (DU-145) | GI50 (SNB-75) | GI50 (HCT-15) | GI50 (HOP-62) | GI50 (KM12) |
| --- | --- | --- | --- | --- | --- | --- | --- | --- | --- | --- | --- | --- | --- | --- | --- | --- | --- | --- | --- | --- |
| C/C(=N\NC(=S)NC(C)(C)C)c1nc2cccnc2[nH]1 | 7.74 µM (inactive) | 4.92 µM (inactive) | 2.5 µM (inactive) | 3.4 µM (inactive) | 2.13 µM (inactive) | 7.35 µM (inactive) | 3.79 µM (inactive) | 1.15 µM (inactive) | 6.53 µM (inactive) | 3.47 µM (inactive) | 3.21 µM (inactive) | 1.47 µM (inactive) | 3.03 µM (inactive) | 2.8 µM (inactive) | 7.38 µM (inactive) | 2.43 µM (inactive) | 16.3 µM (inactive) | 2.47 µM | 6.15 µM (inactive) | 4.8 µM (inactive) |
| CC(=O)NCC1OC2COC(c3ccccc3)OC2C2N=C(c3ccccc3)OC12 (stereo not given) | > 100 µM (inactive) | 41.7 µM (inactive) | 38 µM (inactive) | 67.5 µM (inactive) | 43.2 µM (inactive) | 58.2 µM (inactive) | 66.5 µM (inactive) | > 100 µM (inactive) | 81.1 µM (inactive) | 80.9 µM (inactive) | > 100 µM (inactive) | 61.1 µM (inactive) | 60.7 µM (inactive) | 35.3 µM (inactive) | 39.1 µM (inactive) | > 100 µM (inactive) | 38.2 µM (inactive) | 43.4 µM | > 100 µM (inactive) | 40.4 µM (inactive) |
| CC(=O)CC1CCC(=O)CCC(=O)OC(CC(C)=O)CCC(=O)CCC(=O)O1 (stereo not given) | > 100 µM (inactive) | > 100 µM (inactive) | > 100 µM (inactive) | > 100 µM (inactive) | > 100 µM (inactive) | > 100 µM (inactive) | > 100 µM (inactive) | > 100 µM (inactive) | > 100 µM (inactive) | > 100 µM (inactive) | > 100 µM (inactive) | > 100 µM (inactive) | > 100 µM (inactive) | > 100 µM (inactive) | > 100 µM (inactive) | > 100 µM (inactive) | > 100 µM (inactive) | > 100 µM | > 100 µM (inactive) | > 100 µM (inactive) |
| CSC1=C(C)S/C(=C\c2ccc(/C=C3\SC(C)=C(SC)S3)cc2)S1 | > 100 µM (inactive) | 21.6 µM (inactive) | > 100 µM (inactive) | 92.5 µM (inactive) | > 100 µM (inactive) | 89.3 µM (inactive) | > 100 µM (inactive) | 79.8 µM (inactive) | > 100 µM (inactive) | > 100 µM (inactive) | 5.33 µM (inactive) | 39.3 µM (inactive) | > 100 µM (inactive) | 88.9 µM (inactive) | > 100 µM (inactive) | > 100 µM (inactive) | 41.6 µM (inactive) | > 100 µM | 33.5 µM (inactive) | > 100 µM (inactive) |
| O=C(OCC1CCCN2CCCCC12)c1ccncc1 (stereo not given) | > 100 µM (inactive) | > 100 µM (inactive) | > 100 µM (inactive) | > 100 µM (inactive) | > 100 µM (inactive) | > 100 µM (inactive) | > 100 µM (inactive) | > 100 µM (inactive) | > 100 µM (inactive) | > 100 µM (inactive) | > 100 µM (inactive) | > 100 µM (inactive) | > 100 µM (inactive) | > 100 µM (inactive) | > 100 µM (inactive) | > 100 µM (inactive) | > 100 µM (inactive) | > 100 µM | > 100 µM (inactive) | > 100 µM (inactive) |
| O=C1OC(CCCN2CCCCC2)(c2ccccc2)CC12CCCC2 (stereo not given) | > 100 µM (inactive) | 80 µM (inactive) | > 100 µM (inactive) | > 96.6 µM (inactive) | 40 µM (inactive) | > 100 µM (inactive) | 66.1 µM (inactive) | > 100 µM (inactive) | > 100 µM (inactive) | > 100 µM (inactive) | 49.1 µM (inactive) | 2.1 µM (inactive) | 89.1 µM (inactive) | > 84.9 µM (inactive) | > 77.6 µM (inactive) | > 100 µM (inactive) | 23 µM (inactive) | > 95.3 µM | > 100 µM (inactive) | > 100 µM (inactive) |
| CCOC(=O)C(C)c1nc2ccc(C(F)(F)F)cc2[nH]c1=O (stereo not given) | > 100 µM (inactive) | 64.3 µM (inactive) | 43.1 µM (inactive) | 73.6 µM (inactive) | 50.2 µM (inactive) | 60.7 µM (inactive) | 65.2 µM (inactive) | > 100 µM (inactive) | 87.1 µM (inactive) | > 100 µM (inactive) | > 100 µM (inactive) | 43.9 µM (inactive) | 84.9 µM (inactive) | 45.5 µM (inactive) | 64.1 µM (inactive) | 69.2 µM (inactive) | 46.6 µM (inactive) | 95.3 µM | > 100 µM (inactive) | 71.9 µM (inactive) |
| C=CCc1c(Cl)nc(Cl)nc1Cl | 0.258 µM (active) | 0.217 µM (active) | 1.02 µM (active) | 0.0421 µM (active) | 0.0102 µM (active) | 1.08 µM (active) | 0.832 µM (active) | 0.578 µM (active) | 1.66 µM (inactive) | 0.0495 µM (active) | 1.04 µM (active) | 0.255 µM (active) | 0.565 µM (active) | 1.93 µM (inactive) | 0.0308 µM (active) | 2.01 µM (inactive) | 1.08 µM (active) | 0.0873 µM | 0.515 µM (active) | 0.439 µM (active) |
| Cc1ccc2c(=O)cc(-c3cccc(F)c3)[nH]c2n1 | 0.0746 µM (active) | 0.0415 µM (active) | 0.0719 µM (active) | 0.0336 µM (active) | 0.0542 µM (active) | 1.94 µM (inactive) | 0.0586 µM (active) | 0.0389 µM (active) | 0.0678 µM (active) | 0.0251 µM (active) | 0.0728 µM (active) | 0.9 µM (active) | 0.0356 µM (active) | 0.0321 µM (active) | < 0.012 µM (active) | 0.0504 µM (active) | 0.0218 µM (active) | 0.0381 µM | 0.0655 µM (active) | 0.022 µM (active) |
| Nc1nc(Cl)cc(NCC2(CO)CCC2)n1 | > 100 µM (inactive) | > 100 µM (inactive) | 75.2 µM (inactive) | > 100 µM (inactive) | > 100 µM (inactive) | > 100 µM (inactive) | > 100 µM (inactive) | > 100 µM (inactive) | > 100 µM (inactive) | > 100 µM (inactive) | > 100 µM (inactive) | > 100 µM (inactive) | > 100 µM (inactive) | > 100 µM (inactive) | > 100 µM (inactive) | > 100 µM (inactive) | > 100 µM (inactive) | > 100 µM | > 100 µM (inactive) | > 100 µM (inactive) |
| CS(=O)(=O)C(=Cc1ccccc1Cl)S(C)(=O)=O | > 100 µM (inactive) | > 100 µM (inactive) | > 100 µM (inactive) | > 100 µM (inactive) | > 100 µM (inactive) | > 100 µM (inactive) | > 100 µM (inactive) | > 100 µM (inactive) | > 100 µM (inactive) | > 66.4 µM (inactive) | > 100 µM (inactive) | > 100 µM (inactive) | > 100 µM (inactive) | > 46.5 µM (inactive) | > 46.5 µM (inactive) | > 100 µM (inactive) | > 100 µM (inactive) | > 100 µM | > 100 µM (inactive) | > 46.5 µM (inactive) |
| CSc1nc2c(c(N(C)C)n1)C(O)n1c(nc3ccccc31)S2 (stereo not given) | > 100 µM (inactive) | 21.3 µM (inactive) | > 100 µM (inactive) | > 100 µM (inactive) | > 100 µM (inactive) | > 53.2 µM (inactive) | > 100 µM (inactive) | > 22.7 µM (inactive) | 32.7 µM (inactive) | > 100 µM (inactive) | 15.2 µM (inactive) | 43.3 µM (inactive) | 73.5 µM (inactive) | 38.1 µM (inactive) | > 55.1 µM (inactive) | 69.7 µM (inactive) | 17.1 µM (inactive) | > 100 µM | 23 µM (inactive) | > 100 µM (inactive) |
| CNc1nc2c(C)ccc3nc(N(C)C)[nH]c3c-2n1 | 36.1 µM (inactive) | 25.7 µM (inactive) | 30.1 µM (inactive) | 76.7 µM (inactive) | 32.7 µM (inactive) | > 100 µM (inactive) | 28.2 µM (inactive) | 58.3 µM (inactive) | 32.4 µM (inactive) | 47.3 µM (inactive) | 24.8 µM (inactive) | > 100 µM (inactive) | 26.2 µM (inactive) | 55.5 µM (inactive) | 33.8 µM (inactive) | 42.2 µM (inactive) | 41.8 µM (inactive) | 23.9 µM | 43.7 µM (inactive) | 39.4 µM (inactive) |
| COC(=O)C1(C(=O)OC)CC(=O)c2c(OC(=O)c3cccc(OC)c3C#N)ccc(OC(=O)c3cccc(OC)c3C#N)c2C1 | > 100 µM (inactive) | > 100 µM (inactive) | > 100 µM (inactive) | > 100 µM (inactive) | > 100 µM (inactive) | > 100 µM (inactive) | > 100 µM (inactive) | > 100 µM (inactive) | > 100 µM (inactive) | > 100 µM (inactive) | > 100 µM (inactive) | 83.8 µM (inactive) | > 100 µM (inactive) | > 100 µM (inactive) | > 100 µM (inactive) | > 100 µM (inactive) | > 100 µM (inactive) | > 100 µM | > 100 µM (inactive) | > 100 µM (inactive) |
